Reference: publication PMC4536076, “Chemical Library Screening and Structure-Function Relationship Studies Identify Bisacodyl as a Potent and Selective Cytotoxic Agent Towards Quiescent Human Glioblastoma Tumor Stem-Like Cells” (PLoS ONE, 2015)
Counter-ions that a name gives are not always drawn. Like-named read-outs stand apart in the source and are kept apart here.

How the values were obtained:
proliferating TG1 GSCs [1] = conditions: 50 μM; for Activity on proliferating TG1 GSCs (hit compounds reducing ATP levels): primary screen, 24 h
Experimental: (§1) Proliferating or quiescent TG1 GSCs were seeded (30 000 and 40 000 viable cells/well, respectively) into 96-well opaque bottom plates (Greiner) with the Biomek FX robot (Beckman Coulter). Each compound from the Prestwick Library was then added (final concentration: 50 μM; 1% DMSO). Each molecule was tested once. Negative control wells (12/96 per assay plate) contained cells treated with 1% DMSO (final concentration) and positive control wells (4/96 per assay plate) contained cells treated with the fungal toxin ophiobolin A (Sigma Aldrich) at 50 μM with 1% DMSO. […] Luminescence in each well was measured with the Victor3 plate reader (PerkinElmer).
(§2) Relative ATP levels in each well were determined by calculating the percentage of luminescent signal in the well with respect to the average signal measured in negative control wells.
(§3) Primary screen hits were further tested in duplicate, at two concentrations (50 and 5 μM) on proliferating and quiescent TG1 GSCs. Cell plating and treatment with compounds were as for the primary screen. Hit selection/confirmation criteria for quiescent cells were as described above.

quiescent TG1 GSCs [2] = conditions: 50 μM
Experimental: as §1, §2, §3

quiescent TG1 GSCs [3] = experiment: ATP-Glo dose-response, quiescent TG1 GSCs; assay type: cell-based, human; conditions: for Quiescent TG1 GSCs EC50 / EC50: SAR study, ATP-Glo cell survival assay, 24 h, triplicate; for EC50: read-out: Quiescent TG1 GSCs EC50; for fold increase in EC50 (activity decrease) compared to DDPM (compound 2): quiescent TG1 GSCs
Experimental: (§4) The EC50 value was determined for each compound by fitting the data points according to the following equation: y=Smax+Smin*(x*1/EC50)^n/1+(x*1/EC50)^n where y represents the expected response, x is the chemical compound concentration, S max and S min are the maximum and minimum responses recorded, respectively and n is the Hill coefficient. Curve fitting was performed using Microsoft Excel Solver component.
(§5) Proliferating or quiescent TG1 cells were seeded in 50 μL of their respective media (30 000 and 40 000 viable cells/well, respectively) into 96-well opaque bottom plates (Greiner, Courtaboeuf, France). Compound treatment was performed by adding 50 μL of compound solutions (in the presence of 2% DMSO in culture medium). […] All compounds were tested in triplicate in each experiment. Independent experiments were performed at least twice for almost all of the compounds.

proliferating TG1 GSCs [4] = experiment: ATP-Glo dose-response, proliferating TG1 GSCs; assay type: cell-based, human; conditions: SAR study, ATP-Glo cell survival assay, 24 h, triplicate; for EC50: read-out: Proliferating TG1 GSCs EC50
Experimental: as §4, §5

With `CCCCC(CC)CNC(=N)NC(=N)NCCCCCCNC(=N)NC(=N)NCC(CC)CCCC` (centres unmarked) [Alexidine dihydrochloride] the “Activity on proliferating TG1 GSCs (hit compounds reducing ATP levels)” value (proliferating TG1 GSCs [1]) was “yes” and the “Activity on quiescent TG1 GSCs (hit compounds reducing ATP levels)” value (quiescent TG1 GSCs [2]; primary screen, 24 h) was “yes”.

In the case of `COc1ccc(C(c2ccc(OC)cc2)c2ccccn2)cc1` [Compound 4, 4,4'-dimethoxydiphenyl(pyridin-2-yl)methane], the “Quiescent TG1 GSCs EC50” value (quiescent TG1 GSCs [3]) is reported as “No activity” and the “Proliferating TG1 GSCs EC50” value (proliferating TG1 GSCs [4]) is reported as “No activity”.

For `Oc1ccc(C(c2ccccc2)c2ccc(O)cc2)cc1` [Compound 12, 4,4’-dihydroxyphenyl-phenyl-methane], the EC50 (quiescent TG1 GSCs [3]; Homo sapiens) was 14.2 ± 8.8 µM, the “fold increase in EC50 (activity decrease) compared to DDPM (compound 2)” value (quiescent TG1 GSCs [3]) was “at least 10 fold” and the EC50 (proliferating TG1 GSCs [4]; Homo sapiens) was 60.8 ± 10.4 µM.

For `Oc1ccc(C(c2ccc(O)cc2)c2cccnc2)cc1` [Compound 15, 4,4'-dihydroxyphenyl-3-pyridinyl-methane], the EC50 (quiescent TG1 GSCs [3]; Homo sapiens) was 8 ± 3 µM, the “fold increase in EC50 (activity decrease) compared to DDPM (compound 2)” value (quiescent TG1 GSCs [3]) was ~ 8 fold and the EC50 (proliferating TG1 GSCs [4]; Homo sapiens) was > 100 µM.

“4-hydroxyphenyl-4-trifluoromethylphenyl-2-pyrimidyl-methane [Compound 11]” was tested, and the EC50 (quiescent TG1 GSCs [3]) was 12.4 ± 6.9 µM and the EC50 (proliferating TG1 GSCs [4]) was > 100 µM.

`Clc1ccc(COC(Cn2ccnc2)c2ccc(Cl)cc2Cl)c(Cl)c1` (centres unmarked) [Miconazole] was tested, and the “Activity on proliferating TG1 GSCs (hit compounds reducing ATP levels)” value (proliferating TG1 GSCs [1]) was “yes” and the “Activity on quiescent TG1 GSCs (hit compounds reducing ATP levels)” value (quiescent TG1 GSCs [2]; primary screen, 24 h) was “yes”.

With `Oc1ccc(Cc2ccccn2)cc1` [Compound 8, 2-(4-Hydroxybenzyl)pyridine] the “Quiescent TG1 GSCs EC50” value (quiescent TG1 GSCs [3]) was “No activity” and the “Proliferating TG1 GSCs EC50” value (proliferating TG1 GSCs [4]) was “No activity”.

`CC(C)(C)OC(=O)NCCCCCCNC(=O)CCCC#Cc1cccc(C(c2ccc(O)cc2)c2ccc(O)cc2)n1` [Compound 19, tert-butyl(6-(6-(6-(bis(4-hydroxyphenyl)methyl)pyridin-2-yl)hex-5-ynamido)hexyl)carbamate] was tested, and the EC50 (quiescent TG1 GSCs [3]; Homo sapiens) was 3.84 µM and the “Proliferating TG1 GSCs EC50” value (proliferating TG1 GSCs [4]) was “No activity”.

With “4-hydroxyphenyl-4-phenyl-(pyridin-2-yl)-methane [Compound 7]” the EC50 (quiescent TG1 GSCs [3]) was 17.1 ± 6.3 µM and the EC50 (proliferating TG1 GSCs [4]) was > 100 µM.

With `CC(C)=C[C@H]1C[C@H](C)[C@]2(CC[C@]3(C)C[C@H]4[C@H](C(=O)C[C@@]4(C)O)/C(C=O)=C\C[C@H]32)O1` [Ophiobolin A] the “cytotoxicity (positive control)” value (proliferating TG1 GSCs [1]; 1% DMSO, proliferating GSCs) was “cytotoxic” and the “cytotoxicity (positive control)” value (quiescent TG1 GSCs [2]; 1% DMSO, quiescent GSCs) was “cytotoxic”.

In the case of Avermectin B1, the “Activity on proliferating TG1 GSCs (hit compounds reducing ATP levels)” value (proliferating TG1 GSCs [1]) is reported as “yes” and the “Activity on quiescent TG1 GSCs (hit compounds reducing ATP levels)” value (quiescent TG1 GSCs [2]; primary screen, 24 h) is reported as “yes”.

With `Oc1ccc(C(c2ccccn2)c2ccccc2O)cc1` (centres unmarked) [Compound 9, (2-hydroxyphenyl)-(4-hydroxyphenyl)-(pyridin-2-yl)-methane] the EC50 (quiescent TG1 GSCs [3]; Homo sapiens) was 57.6 ± 0.7 µM and the “Proliferating TG1 GSCs EC50” value (proliferating TG1 GSCs [4]) was “No activity”.

With `O[C@H]1[C@H]2c3cc4c(cc3CN3CCC(=C[C@@H]1O)[C@H]23)OCO4` [Lycorine hydrochloride] the “Activity on proliferating TG1 GSCs (hit compounds reducing ATP levels)” value (proliferating TG1 GSCs [1]) was “yes” and the “Activity on quiescent TG1 GSCs (hit compounds reducing ATP levels)” value (quiescent TG1 GSCs [2]; primary screen, 24 h) was “yes”.

In the case of `Clc1ccc(C(Cn2ccnc2)OCc2c(Cl)cccc2Cl)c(Cl)c1` (centres unmarked) [Isoconazole], the “Activity on proliferating TG1 GSCs (hit compounds reducing ATP levels)” value (proliferating TG1 GSCs [1]) is reported as “yes” and the “Activity on quiescent TG1 GSCs (hit compounds reducing ATP levels)” value (quiescent TG1 GSCs [2]; primary screen, 24 h) is reported as “yes”.

`Cl.Cl.Fc1ccc(C(OCCN2CCN(CCCc3ccccc3)CC2)c2ccc(F)cc2)cc1` [GBR 12909 dihydrochloride] was tested, and the “Activity on proliferating TG1 GSCs (hit compounds reducing ATP levels)” value (proliferating TG1 GSCs [1]) was “yes” and the “Activity on quiescent TG1 GSCs (hit compounds reducing ATP levels)” value (quiescent TG1 GSCs [2]; primary screen, 24 h) was “yes”.

In the case of `Cc1cccc(CN2CCN(C(c3ccccc3)c3ccc(Cl)cc3)CC2)c1.Cl.Cl` (centres unmarked) [Meclozine dihydrochloride], the “Activity on proliferating TG1 GSCs (hit compounds reducing ATP levels)” value (proliferating TG1 GSCs [1]) is reported as “yes” and the “Activity on quiescent TG1 GSCs (hit compounds reducing ATP levels)” value (quiescent TG1 GSCs [2]; primary screen, 24 h) is reported as “yes”.

In the case of `CCOC(=O)C1=C(C)NC(C)=C(C(=O)OC)C1c1cccc([N+](=O)[O-])c1` (centres unmarked) [Nitrendipine], the “Activity on proliferating TG1 GSCs (hit compounds reducing ATP levels)” value (proliferating TG1 GSCs [1]) is reported as “yes” and the “Activity on quiescent TG1 CSCs (hit compounds increasing ATP levels)” value (quiescent TG1 GSCs [2]; primary screen, 24 h) is reported as “yes”.

In the case of `Cc1cc2c(C(C)C)c(O)c(O)c(C=O)c2c(O)c1-c1c(C)cc2c(C(C)C)c(O)c(O)c(C=O)c2c1O` [Gossypol], the “Activity on proliferating TG1 GSCs (hit compounds reducing ATP levels)” value (proliferating TG1 GSCs [1]) is reported as “yes” and the “Activity on quiescent TG1 GSCs (hit compounds reducing ATP levels)” value (quiescent TG1 GSCs [2]; primary screen, 24 h) is reported as “yes”.
